In paper PMC9021566, “Design, Synthesis, and Antitumor Activity Study of All-Hydrocarbon-Stapled B1-Leu Peptides” (Frontiers in Chemistry, 2022):
Like-named read-outs stand apart in the source and are kept apart here.

Columns and labels:
[1] = On-resin ring-closing olefin metathesis (all-hydrocarbon stapling, S5/S5 i,i+4 or R8/S5 i,i+7), first-generation Grubbs catalyst (3 equiv); then Fmoc removal, TFA cleavage, RP-HPLC; conditions: the molecule shown is the open-chain precursor, 33-membered ring, 1,2-dichloroethane (dry), 25.0 °C, 4.0 h
[2] = the molecule shown is the open-chain precursor, resin

| Compound | ring closure, overall yield [1] [%] | other results |
| --- | --- | --- |
| C=CCCCCCC[C@@](C)(NC(=O)[C@@H](NC(=O)OCC1c2ccccc2-c2ccccc21)C(C)C)C(=O)N[C@@H](CCCNC(=N)NS(=O)(=O)c1c(C)c(C)c2c(c1C)CC(C)(C)O2)C(=O)N[C@@H](Cc1ccccc1)C(=O)N[C@@H](CCCCNC(=O)OC(C)(C)C)C(=O)N[C@@H](CCCCNC(=O)OC(C)(C)C)C(=O)N[C@@H](Cc1ccccc1)C(=O)N[C@@H](Cc1ccccc1)C(=O)N[C@@](C)(CCCC=C)C(=O)N[C@@H](CCCCNC(=O)OC(C)(C)C)C(=O)N[C@@H](CC(C)C)C(=O)N[C@@H](CCCCNC(=O)OC(C)(C)C)C(=O)N[C@@H](CCCCNC(=O)OC(C)(C)C)C(=O)N[C@@H](CC(C)C)C(=O)N[C@H](C(N)=O)C(C)C | 62 |  |
| C=CCCCCCC[C@@](C)(NC(=O)[C@H](CCCCNC(=O)OC(C)(C)C)NC(=O)[C@H](Cc1ccccc1)NC(=O)[C@H](CCCNC(=N)NS(=O)(=O)c1c(C)c(C)c2c(c1C)CC(C)(C)O2)NC(=O)[C@H](CCCCNC(=O)OC(C)(C)C)NC(=O)[C@@H](NC(=O)OCC1c2ccccc2-c2ccccc21)C(C)C)C(=O)N[C@@H](Cc1ccccc1)C(=O)N[C@@H](Cc1ccccc1)C(=O)N[C@@H](CCCNC(=N)NS(=O)(=O)c1c(C)c(C)c2c(c1C)CC(C)(C)O2)C(=O)N[C@@H](CCCCNC(=O)OC(C)(C)C)C(=O)N[C@@H](CC(C)C)C(=O)N[C@@H](CCCCNC(=O)OC(C)(C)C)C(=O)N[C@@](C)(CCCC=C)C(=O)N[C@@H](CC(C)C)C(=O)N[C@H](C(N)=O)C(C)C | 62 |  |
| C=CCCCCCC[C@@](C)(NC(=O)[C@H](Cc1ccccc1)NC(=O)[C@H](CCCNC(=N)NS(=O)(=O)c1c(C)c(C)c2c(c1C)CC(C)(C)O2)NC(=O)[C@H](CCCCNC(=O)OC(C)(C)C)NC(=O)[C@@H](NC(=O)OCC1c2ccccc2-c2ccccc21)C(C)C)C(=O)N[C@@H](CCCCNC(=O)OC(C)(C)C)C(=O)N[C@@H](Cc1ccccc1)C(=O)N[C@@H](Cc1ccccc1)C(=O)N[C@@H](CCCNC(=N)NS(=O)(=O)c1c(C)c(C)c2c(c1C)CC(C)(C)O2)C(=O)N[C@@H](CCCCNC(=O)OC(C)(C)C)C(=O)N[C@@H](CC(C)C)C(=O)N[C@@](C)(CCCC=C)C(=O)N[C@@H](CCCCNC(=O)OC(C)(C)C)C(=O)N[C@@H](CC(C)C)C(=O)N[C@H](C(N)=O)C(C)C |  | ring closure, overall yield ([2]; 33-membered ring): 65% |
| C=CCCC[C@](C)(NC(=O)[C@H](CCCCNC(=O)OC(C)(C)C)NC(=O)[C@H](Cc1ccccc1)NC(=O)[C@H](CCCNC(=N)NS(=O)(=O)c1c(C)c(C)c2c(c1C)CC(C)(C)O2)NC(=O)[C@](C)(CCCC=C)NC(=O)[C@@H](NC(=O)OCC1c2ccccc2-c2ccccc21)C(C)C)C(=O)N[C@@H](Cc1ccccc1)C(=O)N[C@@H](Cc1ccccc1)C(=O)N[C@@H](CCCNC(=N)NS(=O)(=O)c1c(C)c(C)c2c(c1C)CC(C)(C)O2)C(=O)N[C@@H](CCCCNC(=O)OC(C)(C)C)C(=O)N[C@@H](CC(C)C)C(=O)N[C@@H](CCCCNC(=O)OC(C)(C)C)C(=O)N[C@@H](CCCCNC(=O)OC(C)(C)C)C(=O)N[C@@H](CC(C)C)C(=O)N[C@H](C(N)=O)C(C)C |  | ring closure, overall yield ([2]; 21-membered ring): 65% |
